Laboratory results: patent US20060281700A1, “SYNERGISTIC MODULATION OF FLT3 KINASE USING AMINOPYRIMIDINES KINASE MODULATORS” (priority 2005, published 2006)

Assays:
[1] = system: MV4-11 tumor xenografts; assay: MV4-11 human tumor xenograft regression model in nude mice; type: in vivo
Experimental: Female athymic nude mice (CD-1, nu/nu, 9-10 weeks old) were obtained from Charles River Laboratories (Wilmington, Mass.) and were maintained according to NIH standards. All mice were group housed (5 mice/cage) under clean-room conditions in sterile micro-isolator cages on a 12-hour light/dark cycle in a room maintained at 21-22° C. and 40-50% humidity. Mice were fed irradiated standard rodent diet and water ad libitum. All animals were housed in a Laboratory Animal Medicine facility that is fully accredited by the American Association for Assessment and Accreditation of Laboratory Animal Care (AAALAC). […]
The time course of the inhibitory effects of FLT3 inhibitor compounds on the growth of MV4-11 tumors is illustrated in FIG. 1. […] Percent inhibition (% I) of tumor growth was calculated versus tumor growth in the vehicle-treated Control group on the last study day. Statistical significance versus Control was determined by Analysis of Variance (ANOVA) followed by Dunnett's t-test: *p<0.05; **p<0.01.
(See FIG. 2). […] Percent Inhibition was calculated versus the mean tumor weight in the vehicle-treated control group. Statistical significance versus Control was determined by ANOVA followed by Dunnett's t-test: **p<0.01. […]

[2] = Tolerability in MV4-11 tumor-bearing nude mice (body weight, overt clinical signs); settings: either agent alone or in combination
Experimental: Female athymic nude mice weighing no less than 20-21 grams were inoculated subcutaneously in the left inguinal region of the thigh with 5×10^6 tumor cells in a delivery volume of 0.2 mL. For regression studies, the tumors were allowed to grow to a pre-determined size prior to initiation of dosing. […] Mice were dosed orally by gavage with vehicle (control group) or compound at various doses twice-daily (b.i.d.) during the week and once-daily (q.d.) on weekends. […] If tumors in the control mice reached ˜10% of body weight (˜2.0 grams), the study was to be terminated. […] During the study, tumor growth was measured three times-a-week (M, W, F) using electronic Vernier calipers. Tumor volume (mm^3) was calculated using the formula […], where L=length (mm) and W=width (shortest distance in mm) of the tumor. Body weight was measured three times-a-week and a loss of body weight >10% was used as an indication of lack of compound tolerability. […]
Female athymic nude mice weighing no less than 20-21 grams were inoculated subcutaneously in the left inguinal region of the thigh with 5×10^6 tumor cells in a delivery volume of 0.2 mL. For regression studies, the tumors were allowed to grow to a pre-determined size prior to initiation of dosing. […] During the study, tumor growth was measured three times-a-week (M, W, F) using electronic Vernier calipers. […]

[3] = system: MV4-11 AML cells; assay: Cell proliferation assay, single agents and FTI/FLT3 inhibitor combinations, MV4-11; type: cell-based, human
Experimental: Using this method inhibitors are added simultaneously to cells in a ratio of the IC50 dose of each compound alone. The data is collected and subject to isobolar analysis of fixed ratio dose combinations as described by Chou and Talalay. This analysis is used to generate a combination index or CI. The CI value of 1 corresponds to compounds that behave additively; CI values <0.9 are considered synergistic and CI values of >1.1 are considered antagonistic. Using this method, multiple FTI and FLT3 combinations were evaluated. […] Using the isobologram, synergy can be graphically represented. Data points for combinations that are additive lie along the isobolar line at a given dose affect (CI=1). Data points for combinations that are synergistic fall to the left, or under, the isobolar line for a given dose effect (CI<0.9). Data points for combinations that are antagonistic fall to the right, or over, the isobolar line for a given dose effect (CI>1.1).
Inhibition data was analyzed using Calcsyn (BioSoft, Ferguson, Mo.) and the combination index (C.I.) calculated. C.I. values <0.9 are considered synergistic.

[4] = cited from earlier work
[5] = multicenter Phase II trial, relapsed AML
[6] = patients with relapsed and refractory AML, phase I

In the case of `Cn1cncc1C(N)(c1ccc(Cl)cc1)c1ccc2c(c1)c(-c1cccc(Cl)c1)cc(=O)n2C` (single isomer, unassigned; (+)) [Tipifarnib, (+)-6-[amino(4-chlorophenyl)(1-methyl-1H-imidazol-5-yl)methyl]-4-(3-chlorophenyl)-1-methyl-2(1H)-quinolinone], the “inhibition of tumor volume vs vehicle-treated control group” value ([1]; Day 16, Compound D 25 mg/kg bid, Tipifarnib 50 mg/kg, alone or in combination) is reported as “ineffective”, the “tumor growth vs Vehicle-treated group” value ([1]; Tipifarnib 50 mg/kg single agent, nine days) is reported as “ineffective” and the overt toxicity ([2]; 9-day treatment) is reported as “No overt toxicity”. The overt toxicity ([2]; 16-day treatment) was “No overt toxicity”, the IC50 ([3]; Homo sapiens, MV4-11 proliferation, FTI alone or in the combination named) was 15.4 nM and the “increase in potency of Tipifarnib with a single sub-IC50 dose of FLT3 inhibitor Compound A” value ([3]; MV4-11, Compound A 50 nM) was “more than 3 fold”. The “>50% reduction in bone marrow blasts” value [4, 5] was 31 of 50, the “complete responses (bone marrow blasts <5%)” value [4, 5] was 17 of 50 and the “patients achieving complete remission” value [4, 6] was 2 patients. For the same compound, the response rate [4, 6] was about 30%.
